# Test results reported in PubChem BioAssay (NCI).
#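 Each compound was tested at five concentrations against cells in 96-well plates for 48 hours. GI50: concentration for 50% inhibition of growth. The concentration for full growth arrest is given as TGI.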
# Experiments:
# Experiment in all cases: growth of human tumour cells (NCI), 48 h
# EKVX NSCLC = tested on: EKVX NSCLC
# SF-268 CNS = tested on: SF-268 CNS
# UACC-257 melanoma = tested on: UACC-257 melanoma
# OVCAR-8 ovarian = tested on: OVCAR-8 ovarian
# HOP-92 NSCLC = tested on: HOP-92 NSCLC
# SK-MEL-2 melanoma = tested on: SK-MEL-2 melanoma
# NCI-H460 lung = tested on: NCI-H460 lung
# TK-10 renal = tested on: TK-10 renal
# HL-60(TB) leukemia = tested on: HL-60(TB) leukemia
# CCRF-CEM leukemia = tested on: CCRF-CEM leukemia
smiles,measurement,setting,value
c1ccc2sc(SCN(C3CCCCC3)C3CCCCC3)nc2c1,TGI,EKVX NSCLC,> 100 µM
same,TGI,SF-268 CNS,> 100 µM
same,TGI,UACC-257 melanoma,> 100 µM
same,TGI,OVCAR-8 ovarian,> 100 µM
same,TGI,HOP-92 NSCLC,> 100 µM
same,TGI,SK-MEL-2 melanoma,> 100 µM
same,TGI,NCI-H460 lung,> 100 µM
same,TGI,TK-10 renal,> 100 µM
COc1c(Cl)cc(S(=O)O)cc1Cl,TGI,EKVX NSCLC,> 100 µM
same,TGI,SF-268 CNS,> 100 µM
same,TGI,UACC-257 melanoma,> 100 µM
same,TGI,SK-MEL-2 melanoma,> 100 µM
same,TGI,HL-60(TB) leukemia,> 100 µM
same,TGI,CCRF-CEM leukemia,> 100 µM
same,TGI,NCI-H460 lung,> 100 µM
same,TGI,TK-10 renal,> 100 µM
COc1cc(O)c2c(c1)C(=O)c1cc(C)cc(O)c1C2=O,TGI,EKVX NSCLC,> 100 µM
same,TGI,SF-268 CNS,> 100 µM
same,TGI,UACC-257 melanoma,> 100 µM
same,TGI,OVCAR-8 ovarian,> 100 µM
same,TGI,SK-MEL-2 melanoma,> 100 µM
same,TGI,HL-60(TB) leukemia,> 100 µM
same,TGI,CCRF-CEM leukemia,> 100 µM
same,TGI,NCI-H460 lung,> 100 µM
O=C(O)C1=NNC(C(=O)O)=NN1,TGI,EKVX NSCLC,> 100 µM
same,TGI,SF-268 CNS,> 100 µM
same,TGI,UACC-257 melanoma,> 100 µM
same,TGI,OVCAR-8 ovarian,> 100 µM
same,TGI,HOP-92 NSCLC,> 100 µM
same,TGI,SK-MEL-2 melanoma,> 100 µM
same,TGI,HL-60(TB) leukemia,> 100 µM
same,TGI,CCRF-CEM leukemia,> 100 µM
same,TGI,NCI-H460 lung,> 100 µM
same,TGI,TK-10 renal,> 100 µM
Fc1ccc(-c2nnc3sc(COc4ccccc4Cl)nn23)cc1Cl,GI50,EKVX NSCLC,39.2 µM
same,TGI,EKVX NSCLC,> 100 µM
same,GI50,SF-268 CNS,41.9 µM
same,TGI,SF-268 CNS,> 100 µM
same,GI50,UACC-257 melanoma,46.2 µM
same,TGI,UACC-257 melanoma,> 100 µM
same,GI50,OVCAR-8 ovarian,37.8 µM
same,TGI,OVCAR-8 ovarian,> 100 µM
same,GI50,HOP-92 NSCLC,30.4 µM
same,TGI,HOP-92 NSCLC,> 100 µM
same,GI50,SK-MEL-2 melanoma,51.8 µM
same,TGI,SK-MEL-2 melanoma,> 100 µM
same,GI50,HL-60(TB) leukemia,30.4 µM
same,TGI,HL-60(TB) leukemia,> 100 µM
same,GI50,CCRF-CEM leukemia,20.8 µM
same,TGI,CCRF-CEM leukemia,52.6 µM
same,GI50,TK-10 renal,> 100 µM
same,TGI,TK-10 renal,> 100 µM
CC(CO)(CO)Nc1ncnc2ccccc12,TGI,EKVX NSCLC,> 100 µM
same,TGI,SF-268 CNS,> 100 µM
same,TGI,UACC-257 melanoma,> 100 µM
same,TGI,OVCAR-8 ovarian,> 100 µM
same,TGI,HOP-92 NSCLC,> 100 µM
same,TGI,SK-MEL-2 melanoma,> 100 µM
same,TGI,CCRF-CEM leukemia,> 100 µM
same,TGI,NCI-H460 lung,> 100 µM
same,TGI,TK-10 renal,> 100 µM
Nc1nnc(N)n1NC(=O)C(=O)Nc1ccc([N+](=O)[O-])cc1,TGI,EKVX NSCLC,> 100 µM
same,TGI,SF-268 CNS,> 100 µM
same,TGI,UACC-257 melanoma,> 100 µM
same,TGI,OVCAR-8 ovarian,> 100 µM
same,TGI,HOP-92 NSCLC,> 100 µM
same,TGI,SK-MEL-2 melanoma,> 100 µM
same,TGI,HL-60(TB) leukemia,> 100 µM
same,TGI,CCRF-CEM leukemia,> 100 µM
same,TGI,NCI-H460 lung,> 100 µM
same,TGI,TK-10 renal,> 100 µM
CC1(O)CC23CC1CCC2(C)C12CCCC(C)(C(=O)O1)C2CC3O (stereo not given),TGI,EKVX NSCLC,> 100 µM
same,TGI,SF-268 CNS,> 100 µM
same,TGI,UACC-257 melanoma,> 100 µM
same,TGI,OVCAR-8 ovarian,> 100 µM
same,TGI,HOP-92 NSCLC,> 100 µM
same,TGI,SK-MEL-2 melanoma,> 100 µM
same,TGI,CCRF-CEM leukemia,> 100 µM
same,TGI,NCI-H460 lung,> 100 µM
same,TGI,TK-10 renal,> 100 µM
